Legend:
[1] = Accelerating rotarod test in mice (motor coordination); conditions: male, ddY, mouse, in vivo, oral, 1 hour before test, read-out: TD50 (95% CI) in mouse rotarod test
Description: Motor incoordination is one of the most common AEs associated with the use of ASMs.[9] Therefore, motor coordination was evaluated in mice receiving E2730 to assess if it is a new ASM candidate with a wide margin between therapeutic effects and AEs. E2730 (50–400 mg/kg) or vehicle was orally administered in ddY mice (male, 5 weeks old) 1 hour before the rotarod test, and the latency for mice to fall off the rod was measured. The rod rotation of the rotarod apparatus (Muromachi Kikai) was continuously accelerated from 0 to 40 rpm in a cut‐off time of 180 seconds.

[2] = tested on: 6 Hz-44 mA psychomotor seizure mice; test: Pharmaco-resistant 6 Hz-44 mA psychomotor seizures in mice; assay type: in vivo, mouse; conditions: Mus musculus; oral, 1 hour before electrostimulation, ddY mice; read-out: ED50 (95% CI), 6 Hz-44 mA psychomotor seizures
Description: Psychomotor seizures were stimulated by applying currents (44 mA, 6 Hz, 0.2 millisecond rectangular pulse width, 3‐second duration each) via a corneal electrode (SEN‐7203; Nihon Kohden). E2730 (5–50 mg/kg), levetiracetam (Tokyo Chemical Industry; 20–200 mg/kg), or vehicle was orally administered to ddY mice (male, 5 weeks old; Japan SLC Inc.) 1 hour before electrostimulation. […] Behavioral seizures observed in mice were classified into the following four types: stun, forelimb clonus, twitching of the vibrissae, and Straub‐tail.

[3] = biological target: T1, hGAT1 (Homo sapiens, UniProt P30531); test: [3H]GABA uptake in hGAT1 stably expressing HEK293 cells; assay type: cell-based; conditions: 50 μM [3H]GABA
T1 construct: expressed in transfected cells; host or cells: HEK293
T1 sequence (P30531 whole entry): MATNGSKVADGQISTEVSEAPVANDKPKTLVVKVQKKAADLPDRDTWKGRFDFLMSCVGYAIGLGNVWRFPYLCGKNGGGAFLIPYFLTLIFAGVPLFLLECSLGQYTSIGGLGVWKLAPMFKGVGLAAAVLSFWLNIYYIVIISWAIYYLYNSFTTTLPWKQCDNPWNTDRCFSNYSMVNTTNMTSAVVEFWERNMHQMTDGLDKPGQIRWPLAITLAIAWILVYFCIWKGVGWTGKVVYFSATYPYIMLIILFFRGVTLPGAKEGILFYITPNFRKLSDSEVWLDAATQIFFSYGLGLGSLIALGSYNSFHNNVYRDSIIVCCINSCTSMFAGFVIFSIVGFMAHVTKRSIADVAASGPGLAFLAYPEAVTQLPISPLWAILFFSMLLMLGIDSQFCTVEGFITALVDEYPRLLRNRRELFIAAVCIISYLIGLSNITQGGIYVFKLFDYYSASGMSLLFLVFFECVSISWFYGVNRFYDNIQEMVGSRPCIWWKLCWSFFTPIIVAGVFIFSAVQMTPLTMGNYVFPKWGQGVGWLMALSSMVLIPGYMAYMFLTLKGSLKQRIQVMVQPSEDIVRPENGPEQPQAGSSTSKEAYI
Description: (§1) HEK293 cells stably expressing human GAT1 (hGAT1), GAT2 (hGAT2), GAT3 (hGAT3), or betaine/GABA transporter 1 (hBGT‐1) were plated onto 96‐well microtiter plates at a density of 4.0 × 10^4 cells/well in Dulbecco's Modified Eagle's Medium (DMEM, containing 10% fetal bovine serum, 100 units/mL penicillin, 100 μg/mL streptomycin, 1% non‐essential amino acid solution, and 25 mM HEPES) and incubated overnight at 37°C in a 5% CO2 atmosphere. After washing the cells with Hanks’ balanced salt solution (HBSS, containing 140 mg/L CaCl2, 100 mg/L MgCl2, 20 mM HEPES, and 10 mM NaOH), E2730 (0.0128–1000 μM) was added to the plate. Following the addition of 50 μM [^3H]GABA, cells were incubated for 5 minutes at 37°C in a 5% CO2 atmosphere and then washed with cold HBSS. Washed cells were incubated in a scintillator for 1 hour at room temperature, followed by radioactivity measurements using a liquid scintillation counter.

[4] = biological target: T2, hGAT2 (Homo sapiens, UniProt Q9NSD5); test: [3H]GABA uptake in hGAT2 stably expressing HEK293 cells; assay type: cell-based; conditions: 50 μM [3H]GABA
T2 construct: expressed in transfected cells; host or cells: HEK293
T2 sequence (Q9NSD5 1-602): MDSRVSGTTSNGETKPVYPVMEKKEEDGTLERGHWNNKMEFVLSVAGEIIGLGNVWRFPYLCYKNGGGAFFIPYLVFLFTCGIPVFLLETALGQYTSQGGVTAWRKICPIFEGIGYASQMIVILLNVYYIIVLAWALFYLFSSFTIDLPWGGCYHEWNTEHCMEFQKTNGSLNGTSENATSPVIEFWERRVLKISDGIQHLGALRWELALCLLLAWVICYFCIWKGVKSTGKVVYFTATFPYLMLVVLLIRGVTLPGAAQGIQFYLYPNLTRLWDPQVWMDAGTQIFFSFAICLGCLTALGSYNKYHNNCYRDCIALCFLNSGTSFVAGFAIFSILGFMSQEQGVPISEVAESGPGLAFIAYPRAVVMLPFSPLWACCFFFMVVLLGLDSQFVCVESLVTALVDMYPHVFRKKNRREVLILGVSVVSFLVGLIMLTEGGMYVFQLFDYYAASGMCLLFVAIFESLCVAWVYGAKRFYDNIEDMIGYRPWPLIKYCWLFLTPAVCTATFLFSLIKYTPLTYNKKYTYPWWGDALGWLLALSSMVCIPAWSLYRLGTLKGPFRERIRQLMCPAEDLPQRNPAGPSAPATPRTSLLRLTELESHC
Description: as §1

[5] = biological target: T3, hBGT-1 (Homo sapiens, UniProt P48065); test: [3H]GABA uptake in hBGT-1 stably expressing HEK293 cells; assay type: cell-based; conditions: hBGT-1 HEK293 cells, 50 μM [3H]GABA
T3 construct: expressed in transfected cells; host or cells: HEK293
T3 sequence (P48065 1-614): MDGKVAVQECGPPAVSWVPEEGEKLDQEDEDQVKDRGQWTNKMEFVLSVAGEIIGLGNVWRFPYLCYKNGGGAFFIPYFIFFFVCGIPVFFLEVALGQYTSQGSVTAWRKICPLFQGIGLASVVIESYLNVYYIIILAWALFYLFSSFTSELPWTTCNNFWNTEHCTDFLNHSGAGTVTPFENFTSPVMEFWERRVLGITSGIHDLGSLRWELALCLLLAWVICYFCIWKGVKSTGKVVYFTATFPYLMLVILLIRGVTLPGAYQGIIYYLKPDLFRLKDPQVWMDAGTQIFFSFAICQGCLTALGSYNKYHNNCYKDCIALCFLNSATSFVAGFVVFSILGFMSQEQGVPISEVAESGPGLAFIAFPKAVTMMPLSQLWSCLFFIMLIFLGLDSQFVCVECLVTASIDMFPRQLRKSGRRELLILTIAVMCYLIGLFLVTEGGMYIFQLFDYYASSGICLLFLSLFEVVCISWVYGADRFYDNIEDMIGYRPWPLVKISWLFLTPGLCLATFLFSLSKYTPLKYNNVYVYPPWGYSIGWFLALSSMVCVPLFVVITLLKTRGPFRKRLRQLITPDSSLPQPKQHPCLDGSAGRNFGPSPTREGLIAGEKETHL
Description: as §1

With NS(=O)(=O)N[C@H]1c2c(F)cc(F)cc2CC1(F)F [E2730] as the compound, how does the TD50 at 1 h [1] read?
The TD50 at 1 h was 350 mg/kg.

What about the ED50 [2] of the same compound?
The ED50 was 17 mg/kg.

What about the IC50 [3] of the same compound?
The IC50 was 1.1 µM.

What about the IC50 [4] of the same compound?
Its IC50 is over 1000 µM.

What about the IC50 [5] of the same compound?
Its IC50 is 890 µM.

Source: article PMC10472371, “Discovery of E2730, a novel selective uncompetitive GAT1 inhibitor, as a candidate for anti‐seizure medication” (Epilepsia Open, 2023)
